Data published in ChEMBL document CHEMBL4266026, “Bisleuconothines B-D, Modified Eburnane-Aspidosperma Bisindole Alkaloids from Leuconotis griffithii” (J Nat Prod, 2018).

Each molecule was assayed on A549 (assay: Cytotoxicity against human A549 cells assessed as cell growth inhibition by MTT assay).
Format: functional, cell-based

SMILES | IC50 [µM]
CC[C@@]12CCCN3CC[C@]4(c5c(ccc6c5O[C@@]57[C@@H]8N9CCC[C@]8(CC)C[C@@H]6N5c5ccccc5[C@]7(O)CC9)N(C=O)[C@@H]4CC1)[C@H]32 | 36.1
CC[C@]12C=C(c3ccc(O)c4c3N[C@@H]3CC[C@@]5(CC)CCCN6CC[C@@]43[C@H]65)N3c4ccccc4C(=O)[C@]34CCN(CCC1)[C@H]24 | 33.6
CC[C@@]12CCCN3CC[C@]4(c5c(O)ccc([C@H]6C[C@@]7(CC)CCCN8CC[C@]9(C(=O)c%10ccccc%10N69)[C@H]87)c5N[C@@H]4CC1)[C@H]32 | 20.1
